The record followed here is patent US20090105283A1, “3-HYDROQUINAZOLIN-4-ONE DERIVATIVES FOR USE AS STEAROYL CoA DESATURASE INHIBITORS” (priority 2007, published 2009).

The structures appear in SMILES notation.

The experiment deals with T1, stearoyl-CoA desaturase (SCD) (Rattus norvegicus, UniProt P07308).
T1 construct: The microsomes were quickly thawed and added to assay buffer so that a concentration of 0.4 mg/ml was achieved; from tissue
T1 sequence (P07308 1-358): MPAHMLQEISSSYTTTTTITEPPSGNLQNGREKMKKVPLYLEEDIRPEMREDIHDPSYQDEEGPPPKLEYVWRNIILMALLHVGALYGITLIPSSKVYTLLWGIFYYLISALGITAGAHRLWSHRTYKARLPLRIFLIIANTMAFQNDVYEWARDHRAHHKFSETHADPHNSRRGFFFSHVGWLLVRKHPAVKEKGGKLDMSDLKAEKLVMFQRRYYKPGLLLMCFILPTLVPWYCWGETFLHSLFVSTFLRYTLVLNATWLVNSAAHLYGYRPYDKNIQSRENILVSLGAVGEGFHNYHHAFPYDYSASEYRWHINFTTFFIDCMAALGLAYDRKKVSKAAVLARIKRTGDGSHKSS
The experiment in a line: SCD assay with rat liver microsomes ([3H]stearoyl CoA, adapted from Talamo and Bloch). It is filed as biochemical. The conditions noted are these: Table 2 (Example 21, procedures of Example 20); rat liver microsomes, [3H]stearoyl CoA substrate. The essentials:
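Liver microsomes came from diet-induced male Sprague Dawley rats and were used at 0.2 mg/ml final. Assay buffer was Tris pH 7.2 with NADH, ATP, CoA, MgCl2 and 0.1% BSA. Compounds were preincubated 30 min, then reacted 45 min at room temperature with [3H]stearoyl-CoA; after TCA stop and Bio-Bead cleanup, supernatant radioactivity was counted by scintillation.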
A general note: Liver microsomes are a subcellular fraction often used to study metabolism.
Broadly, the IC50 is the concentration that inhibits the measured activity by half. A lower IC50 goes with inhibition by little substance. On to `O=C(CO)Nc1cnc2ncn(Cc3ccc(Cl)c(Cl)c3)c(=O)c2c1` [compound 78, N-(3-(3,4-dichlorobenzyl)-4-oxo-3,4-dihydropyrido[2,3-d]pyrimidin-6-yl)-2-hydroxyacetamide], for which the IC50 is 0.18 µM.
On to `O=C(CO)Nc1cnc2ncn(Cc3ccc(Cl)cc3)c(=O)c2c1` [compound 79, N-(3-(4-chlorobenzyl)-4-oxo-3,4-dihydropyrido[2,3-d]pyrimidin-6-yl)-2-hydroxyacetamide], for which the IC50 stood at 1.7 µM.
The compound `O=C(Nc1cnc2ncn(Cc3ccc(Cl)cc3)c(=O)c2c1)OCc1ccccc1` [compound 80, benzyl 3-(4-chlorobenzyl)-4-oxo-3,4-dihydropyrido[2,3-d]pyrimidin-6-ylcarbamate] returned an IC50 of 0.078 µM.
Compound `O=C(NCCO)c1ccc2ncn(Cc3ccc(Cl)c(Cl)c3)c(=O)c2c1` [compound 81, 3-(3,4-dichlorobenzyl)-N-(2-hydroxyethyl)-4-oxo-3,4-dihydroquinazoline-6-carboxamide] showed an IC50 of 2.7 µM.
`COCCNC(=O)c1ccc2ncn(Cc3ccc(Cl)c(Cl)c3)c(=O)c2c1` [compound 82, 3-(3,4-dichlorobenzyl)-N-(2-methoxyethyl)-4-oxo-3,4-dihydroquinazoline-6-carboxamide]: inhibition was half-maximal at 1.5 µM (IC50).
`COCCNC(=O)c1ccc2c(=O)n(Cc3ccc(Cl)c(Cl)c3)cnc2c1` [compound 83, 3-(3,4-dichlorobenzyl)-N-(2-methoxyethyl)-4-oxo-3,4-dihydroquinazoline-7-carboxamide] showed an IC50 of 0.58 µM.
Take `O=C(NCCO)c1ccc2c(=O)n(Cc3ccc(Cl)c(Cl)c3)cnc2c1` [compound 84, 3-(3,4-dichlorobenzyl)-N-(2-hydroxyethyl)-4-oxo-3,4-dihydroquinazoline-7-carboxamide]: half-maximal inhibition (IC50) was put at 0.63 µM.
With `O=C(NCc1ccccc1)c1ccc2c(=O)n(Cc3ccc(Cl)c(Cl)c3)cnc2c1` [compound 85, N-benzyl-3-(3,4-dichlorobenzyl)-4-oxo-3,4-dihydroquinazoline-7-carboxamide], the IC50 is 0.95 µM.
The same measure for `O=C(NCCCO)c1ccc2c(=O)n(Cc3ccc(Cl)c(Cl)c3)cnc2c1` [compound 86, 3-(3,4-dichlorobenzyl)-N-(3-hydroxypropyl)-4-oxo-3,4-dihydroquinazoline-7-carboxamide]: 7.7 µM.
With `O=C(NCCOc1ccccc1)c1ccc2c(=O)n(Cc3ccc(Cl)c(Cl)c3)cnc2c1` [compound 87, 3-(3,4-dichlorobenzyl)-4-oxo-N-(2-phenoxyethyl)-3,4-dihydroquinazoline-7-carboxamide] the figure was 1.7 µM.
In turn, `CNC(=O)c1ccc2c(=O)n(Cc3ccc(Cl)c(Cl)c3)cnc2c1` [compound 88, 3-(3,4-dichlorobenzyl)-N-methyl-4-oxo-3,4-dihydroquinazoline-7-carboxamide] returned an IC50 of 1.5 µM.
The compound `CNC(=O)c1ccc2c(=O)n(Cc3ccc(Cl)cc3)cnc2c1` [compound 89, 3-(4-chlorobenzyl)-N-methyl-4-oxo-3,4-dihydroquinazoline-7-carboxamide] showed an IC50 of 7.5 µM.
With `O=C(NCc1ccc(F)cc1)c1ccc2c(=O)n(Cc3ccc(Cl)cc3)cnc2c1` [compound 90, 3-(4-chlorobenzyl)-N-(4-fluorobenzyl)-4-oxo-3,4-dihydroquinazoline-7-carboxamide] the figure was 0.89 µM; with `O=C(NCc1ccc(Cl)c(Cl)c1)c1ccc2c(=O)n(Cc3ccc(Cl)c(Cl)c3)cnc2c1` [compound 91, N,3-bis(3,4-dichlorobenzyl)-4-oxo-3,4-dihydroquinazoline-7-carboxamide], 1.7 µM.
For the compound `O=C(NCCO)c1ccc2c(=O)n(Cc3ccc(Cl)cc3)cnc2c1` [compound 92, 3-(4-chlorobenzyl)-N-(2-hydroxyethyl)-4-oxo-3,4-dihydroquinazoline-7-carboxamide], 1 µM corresponded to half-maximal inhibition (IC50).
With `COCCNC(=O)c1ccc2c(=O)n(Cc3ccc(Cl)cc3)cnc2c1` [compound 93, 3-(4-chlorobenzyl)-N-(2-methoxyethyl)-4-oxo-3,4-dihydroquinazoline-7-carboxamide] the figure was 3.1 µM; with `NCC(=O)Nc1ccc2ncn(Cc3ccc(Cl)c(Cl)c3)c(=O)c2c1` [compound 94, 2-amino-N-(3-(3,4-dichlorobenzyl)-4-oxo-3,4-dihydroquinazolin-6-yl)acetamide], 1.3 µM; with `O=C(CCO)Nc1ccc2ncn(Cc3ccc(Cl)c(Cl)c3)c(=O)c2c1` [compound 95, N-(3-(3,4-dichlorobenzyl)-4-oxo-3,4-dihydroquinazolin-6-yl)-3-hydroxypropanamide], 12 µM.
The same measure for `O=C(Nc1ccc2ncn(Cc3ccc(Cl)c(Cl)c3)c(=O)c2c1)[C@H](O)Cc1ccccc1` [compound 96, (R)—N-(3-(3,4-dichlorobenzyl)-4-oxo-3,4-dihydroquinazolin-6-yl)-2-hydroxy-3-phenylpropanamide]: 3.9 µM; for `O=C(Nc1ccc2ncn(Cc3ccc(Cl)c(Cl)c3)c(=O)c2c1)[C@@H](O)Cc1ccccc1` [compound 97, (S)—N-(3-(3,4-dichlorobenzyl)-4-oxo-3,4-dihydroquinazolin-6-yl)-2-hydroxy-3-phenylpropanamide]: 4.8 µM; for `O=C(C[C@H](O)c1ccccc1)Nc1ccc2ncn(Cc3ccc(Cl)c(Cl)c3)c(=O)c2c1` [compound 98, (S)—N-(3-(3,4-dichlorobenzyl)-4-oxo-3,4-dihydroquinazolin-6-yl)-3-hydroxy-3-phenylpropanamide]: 1.8 µM.
For the compound `O=C(C[C@@H](O)c1ccccc1)Nc1ccc2ncn(Cc3ccc(Cl)c(Cl)c3)c(=O)c2c1` [compound 99, (R)—N-(3-(3,4-dichlorobenzyl)-4-oxo-3,4-dihydroquinazolin-6-yl)-3-hydroxy-3-phenylpropanamide], the IC50 stood at 1.7 µM.
`O=C(Nc1ccc2ncn(Cc3ccc(Cl)c(Cl)c3)c(=O)c2c1)[C@@H](O)c1ccccc1` [compound 100, (S)—N-(3-(3,4-dichlorobenzyl)-4-oxo-3,4-dihydroquinazolin-6-yl)-2-hydroxy-2-phenylacetamide] gave an IC50 of 2.3 µM.
Take `C[C@@H](c1ccc(Cl)c(C(F)(F)F)c1)n1cnc2ccc(NC(=O)CO)cc2c1=O` [compound 102, (S)—N-(3-(1-(4-chloro-3-(trifluoromethyl)phenyl)ethyl)-4-oxo-3,4-dihydroquinazolin-6-yl)-2-hydroxyacetamide]: half-maximal inhibition (IC50) was put at 0.48 µM.
The same measure for `O=C(Nc1ccc2ncn(C/C=C/COc3cc(Cl)ccc3Cl)c(=O)c2c1)OCc1ccccc1` [compound 103, (E)-benzyl 3-(4-(2,5-dichlorophenoxy)but-2-enyl)-4-oxo-3,4-dihydroquinazolin-6-ylcarbamate]: 0.38 µM; for `O=C(Nc1ccc2ncn(Cc3ccc(Cl)c(Cl)c3)c(=O)c2c1)C(O)CO` (stereo not drawn) [compound 106, N-(3-(3,4-dichlorobenzyl)-4-oxo-3,4-dihydroquinazolin-6-yl)-2,3-dihydroxypropanamide]: 3.9 µM.
The same measure for `O=C(O)C(=O)Nc1ccc2ncn(Cc3ccc(Cl)c(Cl)c3)c(=O)c2c1` [compound 107, 2-(3-(3,4-dichlorobenzyl)-4-oxo-3,4-dihydroquinazolin-6-ylamino)-2-oxoacetic acid]: 0.89 µM.
